According to patent publication US20250170156A1, “TOLL-LIKE RECEPTOR LIGANDS” (INIMMUNE CORPORATION, priority 2018, published 2025):
pEC50: −log10 of the molar value. Where a name gives a salt, the structure may show the parent alone.

Columns and labels:
[1] = Stability of aqueous formulations by reverse-phase-HPLC; format: physicochemical; conditions: 40° C.; formulated in 2.5% glycine (FIGS. 9, 12)
Protocol: Formulation. The salted compound was accurately weighed into depyrogenated glass vials, and the required volume of aqueous vehicle added to attain the desired concentration. Vials were placed in a sonication bath (sonication bath temperature≤45° C.) to assist solubility and reduce particle size to achieve sterile filtration without significant loss of compound. Once the solution appeared homogeneous, the particle size was periodically monitored by dynamic light scattering until the solution turned clear and the particle size was <200 mn, or the particle size no longer reduced with continued sonication. The formulation was filtered through a 0.22p PVDF membrane filter into a depyrogenated glass vial and the resulting solution quantitated by RP-HPLC.
Aqueous formulations of compounds 1, 2, 3, 4, 5 and 6 were aliquoted into small depyrogenated vials for stability evaluation at temperatures of 2°-8° C., 25° C., and 40° C. This mirrors ICH stability temperature guidelines, but humidity was not controlled. A vial was pulled for each time point/temperature and analyzed by reverse-phase-HPLC (FIGS. 9-14) according to the following schedule starting from 2 weeks to up to 12 months.

[2] = test system: primary hPBMCs; assay: Induction of RANTES from primary hPBMCs (ELISA)
[3] = molecular target: T1, hTLR4 (Homo sapiens, UniProt O00206+Q9Y6Y9); assay: HEK hTLR4 NF-κB driven SEAP reporter assay (hTLR4 activation); format: cell-based; conditions: 18 hours
T1 construct: expressed in transfected cells; host or cells: HEK cells expressing hTLR4 and an NF-κB driven SEAP reporter
Protocol: hTLR4 activation. HEK hTLR4-expressing cells were treated with 100 μM concentration of test compound followed by a 5-fold dilution series. HEK hTLR4-expressing cells also contained an NF-κB driven SEAP reporter and were stimulated with the indicated concentration (FIG. 1A-1C) of the test compound for 18 hours followed by assessment of the cellular supernatant for SEAP by a Quantikine SEAP assay (InvivoGen). The SEAP assay was used to look at secretion of the NF-κB driven alkaline-phosphatase reporter gene in response to TLR4 activation by the compounds and results are interpreted both in terms of potency of the compounds to induce SEAP activation (i.e. potency where a lower EC50 indicates higher potency) and efficacy for receptor activation (i.e. maximal SEAP induction).

[4] = test system: primary hPBMCs; assay: Induction of MIP-1β from primary hPBMCs (ELISA)
[5] = test system: mRAW264.7 cells; assay: Induction of MIP-1β cytokine from mRAW264.7 cells (ELISA); format: cell-based; conditions: Mus musculus, 18 hours, read-out: mRaw MIP-1β EC50
Protocol: Induction of MIP-1β cytokine from mRAW264.7 cells. […] Treatments started at 20 μM concentration with a 5-fold serial dilution until 3.2768E-09 μM. Supernatants were harvested and analyzed for production of MIP-1β via ELISA (R& D Systems-cat #DY451).

[6] = test system: hMM6 cells; assay: Induction of MIP-1β cytokine from hMM6 cells (ELISA); format: cell-based; conditions: Homo sapiens, 18 hours
Protocol: Induction of […] cytokine from hMM6 cells. The compounds were next tested in the established MM6 potency assay measuring MIP-1β cytokine production as an output measure of compound potency. Human monocytic cell line, Mono-Mac-6 (hMM6) was obtained from DSMZ (Brunswick, Germany). […] Treatments started at a 100 µM concentration proceeded with a 16-point, 5-fold dilution series. Supernatants were harvested and analyzed for production of MIP-1β via ELISA (R&D systems, catalog #DY271).

[7] = test system: influenza virus antigen A/Victoria/210/2009-H3N2; assay: Vaccine adjuvant study, murine influenza virus vaccination model; format: in vivo, BALB/c mice; conditions: intramuscular, 0.1, 0.01 or 0.001 μg with 0.2 μg antigen, 14 days after single immunization, 2% glycine
Protocol: Vaccine adjuvant study. Compounds 2, 4, 5 and 7 were evaluated as vaccine adjuvant in a murine influenza virus vaccination model. 7-9 week old BALB/c mice (10 mice per group) were injected intramuscularly in a hind limb with the influenza virus antigen A/Victoria/210/2009-H3N2 (0.2 μg/mouse) with or without 0.1, 0.01 or 0.001 μg of compound 2, 4, 5 or 7 (formulated in 2% glycine). Fourteen days after a single immunization, animals were bled via the submandibular vein and serum was collected to assay for A/Victoria specific antibodies by ELISA assay (FIG. 7).

[8] = Homo sapiens, read-out: hPBMCs EC50 RANTES, Table 3a, Average of Donors 10, 5, 2
[9] = Homo sapiens, read-out: hPBMCs EC50 RANTES, Table 3a, Donor 2
[10] = Homo sapiens, read-out: hPBMCs EC50 RANTES, Table 3a, Donor 5
[11] = Homo sapiens, read-out: hPBMCs EC50 RANTES, Table 3a, Donor 10
[12] = Homo sapiens, read-out: hPBMCs EC50 RANTES, Table 4b, Average of Donors 22, 5
[13] = Homo sapiens, read-out: hPBMCs EC50 RANTES, Table 4b, Donor 5
[14] = Homo sapiens, read-out: hPBMCs EC50 RANTES, Table 4b, Donor 22
[15] = Homo sapiens, read-out: hPBMCs EC50 MIP-1β, Table 3a, Average of Donors 10, 5, 2
[16] = Homo sapiens, read-out: hPBMCs EC50 MIP-1β, Table 3a, Donor 2
[17] = Homo sapiens, read-out: hPBMCs EC50 MIP-1β, Table 3a, Donor 5
[18] = Homo sapiens, read-out: hPBMCs EC50 MIP-1β, Table 3a, Donor 10
[19] = Homo sapiens, read-out: hPBMCs EC50 MIP-1β, Table 4b, Average of Donors 22, 5
[20] = Homo sapiens, read-out: hPBMCs EC50 MIP-1β, Table 4b, Donor 5
[21] = Homo sapiens, read-out: hPBMCs EC50 MIP-1β, Table 4b, Donor 22
[22] = Homo sapiens, read-out: hPBMCs EC50 RANTES, Table 4c, one donor
[23] = Homo sapiens, 96 h, read-out: hPBMCs EC50 MIP-1β, Table 4d, one donor

T1 sequence (O00206 24-839): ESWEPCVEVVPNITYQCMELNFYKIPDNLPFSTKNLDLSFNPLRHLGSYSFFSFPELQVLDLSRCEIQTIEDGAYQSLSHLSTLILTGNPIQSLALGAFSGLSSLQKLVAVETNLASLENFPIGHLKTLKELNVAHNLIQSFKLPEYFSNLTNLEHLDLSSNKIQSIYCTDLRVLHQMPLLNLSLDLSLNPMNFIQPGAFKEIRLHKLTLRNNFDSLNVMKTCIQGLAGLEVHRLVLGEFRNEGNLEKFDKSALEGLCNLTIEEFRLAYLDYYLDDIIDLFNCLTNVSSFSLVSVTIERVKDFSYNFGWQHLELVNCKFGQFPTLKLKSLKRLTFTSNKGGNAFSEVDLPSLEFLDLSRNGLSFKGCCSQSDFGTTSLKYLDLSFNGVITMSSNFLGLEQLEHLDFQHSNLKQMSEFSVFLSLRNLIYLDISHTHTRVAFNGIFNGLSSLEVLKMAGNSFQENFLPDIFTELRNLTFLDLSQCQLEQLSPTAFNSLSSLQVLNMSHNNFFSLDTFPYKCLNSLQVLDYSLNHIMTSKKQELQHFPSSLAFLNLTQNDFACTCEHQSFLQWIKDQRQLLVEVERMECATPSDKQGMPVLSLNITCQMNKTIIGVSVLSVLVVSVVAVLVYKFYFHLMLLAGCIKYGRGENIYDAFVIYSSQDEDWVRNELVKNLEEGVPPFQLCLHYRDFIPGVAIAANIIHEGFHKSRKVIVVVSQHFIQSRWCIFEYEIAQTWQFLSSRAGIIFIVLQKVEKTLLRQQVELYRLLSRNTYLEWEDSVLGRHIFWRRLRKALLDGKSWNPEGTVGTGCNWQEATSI
T1 sequence (Q9Y6Y9 17-160 limits assumed): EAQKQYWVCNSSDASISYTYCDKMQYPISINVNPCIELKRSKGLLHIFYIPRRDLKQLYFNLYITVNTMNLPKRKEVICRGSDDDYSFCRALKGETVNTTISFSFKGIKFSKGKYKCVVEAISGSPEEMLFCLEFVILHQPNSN

Compound | pEC50 [2, 8] | pEC50 [2, 9] | pEC50 [2, 10] | pEC50 [2, 11] | pEC50 [2, 12] | pEC50 [2, 13] | pEC50 [2, 14] | pEC50 ([3]; Table 1a) | pEC50 ([3]; Table 1b) | pEC50 [4, 15] | pEC50 [4, 16] | pEC50 [4, 17] | pEC50 [4, 18] | pEC50 [4, 19] | pEC50 [4, 20] | pEC50 [4, 21] | pEC50 [5] | pEC50 [6] | adjuvant effect on flu-specific IgG2a antibody titers compared to antigen alone [7] | other results
CCCCCCCCCCC[C@H](CC(=O)NCCO[C@@H]1O[C@H](CO)[C@@H](OP(=O)(O)O)[C@@H](NC(=O)C[C@@H](CCCCCCCCCCC)OC(=O)CCCCCCCCC)[C@H]1NC(=O)C[C@@H](CCCCCCCCCCC)OC(=O)CCCCCCCCC)OC(=O)CCCCCCCCC [Compound 1, 2-[(R)-3-decanoyloxytetradecanoylamino]ethyl 2,3-di-[(R)-3-decanoyloxytetradecanoylamino]-2,3-dideoxy-4-O-phosphono-β-D-allopyranoside] | 10.69 | 10.92 | 10.60 | 10.62 | 9.87 | 10.05 | 9.75 | 7.86 | 7.71 | 10.67 | 10.70 | 10.62 | 10.69 | 9.74 | 10.12 | 9.55 | 10.24 | 9.60 |  | time with no degradation [1]: 6 weeks
CCCCCCCCCCC[C@H](CC(=O)N[C@H]1[C@H](OC[C@H](NC(=O)C[C@@H](CCCCCCCCCCC)OC(=O)CCCCCCCCC)C(=O)OC)O[C@H](CO)[C@@H](OP(=O)(O)O)[C@H]1NC(=O)C[C@@H](CCCCCCCCCCC)OC(=O)CCCCCCCCC)OC(=O)CCCCCCCCC [Compound 3, N—[(R)-3-Decanoyloxytetradecanoyl]-O-[2,3-di-[(R)-3-decanoyloxytetradecanoylamino]-2,3-dideoxy-4-O-phosphono-β-D-allopyranosyl]-L-serine methyl ester] | 10.14 | 10.80 | 9.80 | 10.38 |  |  |  | 8.40 |  | 10.32 | 10.50 | 10.14 | 10.40 |  |  |  | 10.95 | 9.34 |  | 
CCCCCCCCCCC[C@H](CC(=O)NC1C(NC(=O)C[C@@H](CCCCCCCCCCC)OCCCCCCCCCC)[C@H](OP(=O)(O)O)C(CO)O[C@H]1OC[C@H](NC(=O)C[C@@H](CCCCCCCCCCC)OCCCCCCCCCC)C(=O)O)OCCCCCCCCCC (stereo partly drawn) [Compound 4] | 11.08 | 11.08 | 11.09 | 11.08 | 10.73 | 10.83 | 10.66 | 8.88 | 8.86 | 11.31 | 11.23 | 11.57 | 11.21 | 10.86 | 10.85 | 10.88 | 11.85 | 9.91 | dose dependent adjuvant effect | 
CCCCCCCCCCC[C@H](CC(=O)NC1[C@H](OC[C@H](NC(=O)C[C@@H](CCCCCCCCCCC)OCCCCCCCCCC)C(=O)O)OC(CO)[C@@H](OS(=O)(=O)O)[C@@H]1NC(=O)C[C@@H](CCCCCCCCCCC)OCCCCCCCCCC)OCCCCCCCCCC (stereo partly drawn) [Compound 5, N—[(R)-3-Decyloxytetradecanoyl]-O-[2,3-di-[(R)-3-decyloxytetradecanoylamino]-2,3-dideoxy-4-O-sulfoxy-β-D-allopyranosyl]-L-serine] |  |  |  |  | 10.62 | 10.81 | 10.50 |  | 8.54 |  |  |  |  | 10.57 | 10.82 | 10.41 |  |  | dose dependent adjuvant effect | 
CCCCCCCCCCC[C@H](CC(=O)NCCO[C@@H]1OC(CO)[C@@H](OCP(=O)(O)O)[C@H](NC(=O)C[C@@H](CCCCCCCCCCC)OC(=O)CCCCCCCCC)C1NC(=O)C[C@@H](CCCCCCCCCCC)OC(=O)CCCCCCCCC)OC(=O)CCCCCCCCC (stereo partly drawn) [Compound 6] |  |  |  |  | 9.76 | 9.62 | 9.96 |  | 7.99 |  |  |  |  | 10.10 | 10.44 | 9.91 |  |  |  | 
CCCCCCCCCCC[C@H](CC(=O)NCCO[C@@H]1OC(CO)[C@@H](OP(=O)(O)O)C(NC(=O)C[C@@H](CCCCCCCCCCC)OC(=O)CCCCCCCc2ccccc2)C1NC(=O)C[C@@H](CCCCCCCCCCC)OC(=O)CCCCCCCc1ccccc1)OC(=O)CCCCCCCc1ccccc1 (stereo partly drawn) [Compound 8, 2-[(R)-3-(8-phenyl)octanoyloxytetradecanoylamino]ethyl 2,3-di-[(R)-3-(8-phenyl)octanoyloxytetradecanoylamino]-2,3-dideoxy-4-O-phosphono-β-D-allopyranoside triethylammonium Salt] |  |  |  |  |  |  |  |  | 8.30 |  |  |  |  |  |  |  |  |  |  | pEC50 [2, 22]: 10.41; pEC50 [4, 23]: 10.38
CCCCCCCCCCC[C@H](CC(=O)NCCO[C@@H]1OC(CO)[C@@H](OP(=O)(O)O)C(NC(=O)C[C@@H](CCCCCCCCCCC)OC(=O)CCCCCCCc2ccccc2)C1NC(=O)C[C@@H](CCCCCCCCCCC)OC(=O)CCCCCCCCC)OC(=O)CCCCCCCCC (stereo partly drawn) [Compound 9, 2-[(R)-3-decanoyloxytetradecanoylamino]ethyl, 2-[(R)-3-decanoyloxytetradecanoylamino]-3-[(R)-3-(8-phenyl)octanoyloxytetradecanoylamino]-2,3-dideoxy-4-O-phosphono-β-D-allopyranoside triethylammonium salt] |  |  |  |  |  |  |  |  | 7.80 |  |  |  |  |  |  |  |  |  |  | pEC50 [2, 22]: 9.84; pEC50 [4, 23]: 9.74
N—[(R)-3-Decyloxytetradecanoyl]-O-[2,3-di-[(R)-3-decyloxytetradecanoylamino]-2,3-dideoxy-4-O-methylphosphono-β-D-allopyranosyl]-L-serine triethylammonium salt [Compound 7] |  |  |  |  |  |  |  |  | 9.11 |  |  |  |  |  |  |  |  |  | dose dependent adjuvant effect | pEC50 ([2]; read-out: hPBMCs EC50 RANTES, Table 4b, Average of Donors 22, 5): 11.22; pEC50 ([2]; read-out: hPBMCs EC50 RANTES, Table 4b, Donor 5): 11.39; pEC50 ([2]; read-out: hPBMCs EC50 RANTES, Table 4b, Donor 22): 11.10; pEC50 ([4]; read-out: hPBMCs EC50 MIP-1β, Table 4b, Average of Donors 22, 5): 11.08; pEC50 ([4]; read-out: hPBMCs EC50 MIP-1β, Table 4b, Donor 5): 11.48; pEC50 ([4]; read-out: hPBMCs EC50 MIP-1β, Table 4b, Donor 22): 10.88
